Values after ≈ are worked out from the molar mass of the structure shown. Read-outs that look alike come from different tables or passages of the source.
Tests used:
rat cerebral cortex AChE = conditions: read-out: IC50, rat cerebral cortex AChE; cited from earlier work
eAChE = conditions: read-out: IC50 against eAChE, cited from earlier work
AChE [1] = conditions: cited from earlier work
BChE [2] = molecular target: T1, BChE (Homo sapiens, UniProt P06276); conditions: previous study; cited from earlier work
[3] = pH 7.3 (physiological pH); cited from earlier work
BChE [4] = molecular target: T1, BChE; test: BChE inhibition by IPA; format: biochemical; conditions: data not shown
AChE [5] = test: AChE inhibition by IPA; format: biochemical; conditions: data not shown
[6] = ABTS radical scavenging activity; conditions: read-out: IC50, ABTS radical scavenging
FRAP activity = conditions: CUR-IPA 50 to 250 μM; ascorbic acid 2 to 10 μM
[7] = DPPH radical scavenging activity; conditions: read-out: IC50, DPPH radical scavenging

T1 sequence (P06276 29-602): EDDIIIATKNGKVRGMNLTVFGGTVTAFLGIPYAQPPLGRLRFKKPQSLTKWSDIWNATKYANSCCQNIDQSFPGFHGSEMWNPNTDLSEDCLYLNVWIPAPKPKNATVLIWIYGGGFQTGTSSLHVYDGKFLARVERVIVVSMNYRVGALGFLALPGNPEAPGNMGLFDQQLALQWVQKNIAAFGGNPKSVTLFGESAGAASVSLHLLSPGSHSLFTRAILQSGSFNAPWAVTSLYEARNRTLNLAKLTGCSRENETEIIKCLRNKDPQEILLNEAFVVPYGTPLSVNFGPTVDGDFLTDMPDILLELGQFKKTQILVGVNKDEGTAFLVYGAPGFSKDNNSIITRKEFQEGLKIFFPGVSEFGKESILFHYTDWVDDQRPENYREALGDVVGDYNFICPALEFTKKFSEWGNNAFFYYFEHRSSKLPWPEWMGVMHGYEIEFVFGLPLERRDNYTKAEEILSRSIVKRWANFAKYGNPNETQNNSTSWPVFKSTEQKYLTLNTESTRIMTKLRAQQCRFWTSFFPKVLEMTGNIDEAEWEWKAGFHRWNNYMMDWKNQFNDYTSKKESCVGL

## COc1cc(C=CC(=O)CC(=O)C=Cc2ccc(O)c(OC)c2)ccc1O [CUR, 1,7-bis(4-hydroxy-3-methoxyphenyl)-1,6-heptadiene-3,5-dione]
Rat cerebral cortex AChE
  IC50: 10 µM
eAChE; another study
  IC50: 67.7 µM
eAChE; previous study
  IC50: 51.8 µM
AChE [1]
  effect on AChE activity in the ex vivo model: did not affect AChE activity
BChE [2]
  inhibition against BChE: did not show inhibition
[3]
  solubility: 0.4 µg/mL (≈ 1.09 µM)

## O=C(O)CCc1c[nH]c2ccccc12 [IPA, Indole-3-propionic acid]
BChE [4]
  concentration showing inhibition against BChE: ≥ 500 µM
AChE [5]
  concentration showing inhibition against AChE: ≥ 500 µM

## O=C1O[C@H]([C@@H](O)CO)C(O)=C1O [ascorbic acid]
[6]
  IC50: 15.8 µM
FRAP activity
  FRAP activity: present linearly
[7]
  IC50: 34.5 µM

Reference: article PMC11904713 (ACS Omega, 2025)
